This test concerns the target T1, PKC epsilon (Homo sapiens, UniProt Q02156).
T1 construct: purchased Invitrogen P2282
T1 sequence (Q02156 1-737): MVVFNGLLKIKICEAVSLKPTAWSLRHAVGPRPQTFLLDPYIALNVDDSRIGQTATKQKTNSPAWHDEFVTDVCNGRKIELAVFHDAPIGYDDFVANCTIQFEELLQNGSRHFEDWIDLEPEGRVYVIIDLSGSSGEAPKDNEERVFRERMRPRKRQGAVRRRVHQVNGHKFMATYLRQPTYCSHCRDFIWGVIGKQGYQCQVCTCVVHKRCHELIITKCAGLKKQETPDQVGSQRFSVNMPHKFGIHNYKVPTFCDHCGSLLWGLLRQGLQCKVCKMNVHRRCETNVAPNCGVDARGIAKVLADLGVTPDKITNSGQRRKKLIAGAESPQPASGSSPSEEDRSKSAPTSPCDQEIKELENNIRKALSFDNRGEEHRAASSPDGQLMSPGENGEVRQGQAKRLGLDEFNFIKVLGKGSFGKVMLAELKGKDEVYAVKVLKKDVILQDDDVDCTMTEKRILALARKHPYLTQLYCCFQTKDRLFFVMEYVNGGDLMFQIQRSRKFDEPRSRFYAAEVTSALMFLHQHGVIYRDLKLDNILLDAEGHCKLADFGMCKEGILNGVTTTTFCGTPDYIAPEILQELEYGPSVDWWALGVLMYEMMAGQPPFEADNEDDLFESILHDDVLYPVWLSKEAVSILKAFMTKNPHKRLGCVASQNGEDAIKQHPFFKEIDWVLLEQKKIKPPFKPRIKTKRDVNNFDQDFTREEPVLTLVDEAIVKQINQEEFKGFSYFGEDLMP
Put plainly: Biochemical assay for PKC epsilon (fluorescence polarization, Protein Kinase C Assay Kit, Red). The conditions noted are these: read-out: IC50 μM PKCε. How it is done:
The compounds were tested for inhibition of PKC epsilon.
The inhibition assays were performed with a fluorescence polarization (FP) assay using the commercially available Protein Kinase C Assay Kit, Red, from Invitrogen (Product ID. No. P2941), essentially in accordance with the protocol supplied by the manufacturer. […] The isozyme PKC epsilon was also obtained from Invitrogen (Product ID No. P2282).
Staurosporine was used as a positive control (2 μM).
To perform the assay, 2 μl of a solution of the compound to be tested in DMSO (at each concentration) was added to 6 μl of a solution of the enzyme in 10 mM HEPES, 5 mM dithiotreitol, 0.1% Triton X-100, pH 7.4. The final concentration of the enzymes was 10 ng/ml.
After incubating for 30 minutes at room temperature, 4 μl of a mixture of ATP and the protein substrate in 60 mM HEPES (pH7.4), 15 mM MgCl2, 0.3 mM CaCl2, 0.06% NP40 was added.
After incubating for 80 minutes at room temperature, 3 μl of a mix solution of 500 mM EDTA (stop solution) and the Rhodamine-based PKC Red Tracer (from the Protein Kinase C Assay Kit) in BGG/phosphate buffer (pH7.4) with 0.02% NaN3 and 0.1% Triton X-100 was added and 5 μl of a the Anti-Phosphoserine antibody (also from the Protein Kinase C Assay Kit) in BGG/phosphate buffer (pH7.4) with 0.02% NaN3.
The results were fitted to a curve using the XL-Fit algorithm and […] were calculated for each fitted curve, again using the XL-Fit algorithm.
In general terms: Fluorescence polarisation rises when a labelled molecule tumbles more slowly, as on binding a larger partner.

[1] abbreviates: Table 2, compounds of Formula XIII.
Setting [2] is: compounds of Formula XIV, Table 3.

Like-named read-outs stand apart in the source and are kept apart here.

As for `NC(CNC(=O)C1(c2ccc(F)cc2Cl)CCCC1)c1ccc(C(=O)Nc2ccncc2)cc1` (stereo not drawn) [Compound 342, 4-(1-Amino-2-{[1-(2-chloro-4-fluoro-phenyl)-cyclopentanecarbonyl]-amino}-ethyl)-N-pyridin-4-yl-benzamide], the IC50 (usually the concentration that gives 50% inhibition) under setting [1] is less than 0.05 µM. “4-[1-Amino-2-(5-fluoro- indan-1-ylcarbamoyl)-ethyl]- N-pyridin-4-yl-benzamide [Compound 361]”: under setting [2], the IC50 lay within 0.05 to 0.5 µM.

With “4-(1-Amino-2-{[1-(4-fluoro-phenyl)- cyclohexanecarbonyl]-amino}-ethyl)- N-pyridin-4-yl-benzamide [Compound 343]”, the IC50 under setting [1] was less than 0.05 µM. Same read-out and setting: the figure for `NC(CNC(=O)Cc1ccc(F)cc1Cl)c1ccc(C(=O)Nc2ccncc2)cc1` (stereo not drawn) [Compound 332, 4-{1-Amino-2-[2-(2-chloro-4-fluoro-phenyl)-acetylamino]-ethyl}-N-pyridin-4-yl-benzamide] is 0.05 to 0.5 µM. As for `NC(CC(=O)NC1CCOc2ccccc21)c1ccc(C(=O)Nc2ccncc2)cc1` (stereo not drawn) [Compound 359, 4-[1-Amino-2-(chroman-4-ylcarbamoyl)-ethyl]-N-pyridin-4-yl-benzamide], the IC50 under setting [2] was in the range of 0.05 to 0.5 µM.

As for “4-(1-Amino-2-{[1-(4-chloro-phenyl)- cyclobutanecarbonyl]-amino}-ethyl)- N-pyridin-4-yl-benzamide [Compound 337]”, under setting [1], the IC50 lay within 0.05 to 0.5 µM. Take “4-[1-Amino-2-(6-fluoro- indan-1-ylcarbamoyl)-ethyl]- N-pyridin-4-yl-benzamide [Compound 362]”: the IC50 under setting [2] lay in the range of 0.05 to 0.5 µM. Turning to `NC(CNC(=O)C1CCc2ccccc21)c1ccc(C(=O)Nc2ccncc2)cc1` (stereo not drawn) [Compound 351, Indan-1-carboxylic acid {2-amino-2-[4-(pyridin-4-ylcarbamoyl)-phenyl]-ethyl}-amide], the IC50 under setting [1] was 0.05 to 0.5 µM. Consider `NC(CNC(=O)C1(c2cccc(F)c2)CCCC1)c1ccc(C(=O)Nc2ccncc2)cc1` (stereo not drawn) [Compound 341, 4-(1-Amino-2-{[1-(3-fluoro-phenyl)-cyclopentanecarbonyl]-amino}-ethyl)-N-pyridin-4-yl-benzamide], for which, under setting [1], the IC50 lay within 0.05 to 0.5 µM. Same read-out and setting: next, `NC(CNC(=O)Cc1ccccc1)c1ccc(C(=O)Nc2ccncc2)cc1` (stereo not drawn) [Compound 328, 4-(1-Amino-2-phenylacetylamino-ethyl)-N-pyridin-4-yl-benzamide]: 0.05 to 0.5 µM; “7-Fluoro-indan-1-carboxylic acid {2- amino-2-[4-(pyridin-4-ylcarbamoyl)- phenyl]-ethyl}-amide [Compound 353]”: 0.05 to 0.5 µM; `CC(C)(C(=O)NCC(N)c1ccc(C(=O)Nc2ccncc2)cc1)c1ccc(F)c(F)c1` (stereo not drawn) [Compound 376, 4-{1-Amino-2-[2-(3,4-difluoro-phenyl)-2-methyl-propionylamino]-ethyl}-N-pyridin-4-yl-benzamide]: less than 0.05 µM. On the same count and under the same terms, the figure for `NC(CNC(=O)Cc1ccc(F)c(Cl)c1)c1ccc(C(=O)Nc2ccncc2)cc1` (stereo not drawn) [Compound 330, 4-{1-Amino-2-[2-(3-chloro-4-fluoro-phenyl)-acetylamino]-ethyl}-N-pyridin-4-yl-benzamide] is 0.05 to 0.5 µM; for “4-(1-Amino-2-{[1-(4-fluoro-phenyl)- cyclobutanecarbonyl]-amino}-ethyl)- N-pyridin-4-yl-benzamide [Compound 338]” it is less than 0.05 µM; for `NC(CNC(=O)C1CCc2ccc(F)cc21)c1ccc(C(=O)Nc2ccncc2)cc1` (stereo not drawn) [Compound 354, 6-Fluoro-indan-1-carboxylic acid {2-amino-2-[4-(pyridin-4-ylcarbamoyl)-phenyl]-ethyl}-amide] it is 0.05 to 0.5 µM.

Take `NC(CNC(=O)Cc1ccc(Cl)cc1F)c1ccc(C(=O)Nc2ccncc2)cc1` (stereo not drawn) [Compound 333, 4-{1-Amino-2-[2-(4-chloro-2-fluoro-phenyl)-acetylamino]-ethyl}-N-pyridin-4-yl-benzamide]: the IC50 under setting [1] fell in the range of 0.05 to 0.5 µM. Still for that read-out and setting: next, `NC(CNC(=O)Cc1cc(F)ccc1F)c1ccc(C(=O)Nc2ccncc2)cc1` (stereo not drawn) [Compound 331, 4-{1-Amino-2-[2-(2,5-difluoro-phenyl)-acetylamino]-ethyl}-N-pyridin-4-yl-benzamide]: 0.5 to 5 µM. In the case of `NC(CC(=O)NC(c1ccc(F)cc1)C1CCC1)c1ccc(C(=O)Nc2ccncc2)cc1` (stereo not drawn) [Compound 369, 4-(1-Amino-2-{[cyclobutyl-(4-fluoro-phenyl)-methyl]-carbamoyl}-ethyl)-N-pyridin-4-yl-benzamide], under setting [2], the IC50 fell in the range of 0.05 to 0.5 µM.

`NC(CNC(=O)C1(c2ccc(F)cc2)CCCC1)c1ccc(C(=O)Nc2ccncc2)cc1` (stereo not drawn) [Compound 336, 4-(1-Amino-2-{[1-(4-fluoro-phenyl)-cyclopentanecarbonyl]-amino}-ethyl)-N-pyridin-4-yl-benzamide]: the IC50 under setting [1] is less than 0.05 µM. Still for that read-out and setting: next, `NC(CNC(=O)C1CCCc2ccccc21)c1ccc(C(=O)Nc2ccncc2)cc1` (stereo not drawn) [Compound 350, 1,2,3,4-Tetrahydro-naphthalene-1-carboxylic acid {2-amino-2-[4-(pyridin-4-ylcarbamoyl)-phenyl]-ethyl}-amide]: 0.05 to 0.5 µM. Take `NC(CC(=O)NC1CCSc2ccccc21)c1ccc(C(=O)Nc2ccncc2)cc1` (stereo not drawn) [Compound 360, 4-[1-Amino-2-(thiochroman-4-ylcarbamoyl)-ethyl]-N-pyridin-4-yl-benzamide]: the IC50 under setting [2] was in the range of 0.05 to 0.5 µM. The same measure, in the same setting: the figure for `NC(CC(=O)NC1COc2ccccc21)c1ccc(C(=O)Nc2ccncc2)cc1` (stereo not drawn) [Compound 366, 4-[1-Amino-2-(2,3-dihydro-benzofuran-3-ylcarbamoyl)-ethyl]-N-pyridin-4-yl-benzamide] is 0.05 to 0.5 µM. As to `NC(CC(=O)NC1CCCc2sccc21)c1ccc(C(=O)Nc2ccncc2)cc1` (stereo not drawn) [Compound 367, 4-[1-Amino-2-(4,5,6,7-tetrahydro-benzo[b]thiophen-4-ylcarbamoyl)-ethyl]-N-pyridin-4-yl-benzamide], the IC50 under setting [2] was 0.05 to 0.5 µM.

With `CCC(CC)(C(=O)NCC(N)c1ccc(C(=O)Nc2ccncc2)cc1)c1ccccc1` (stereo not drawn) [Compound 334, 4-[1-Amino-2-(2-ethyl-2-phenyl-butyrylamino)-ethyl]-N-pyridin-4-yl-benzamide], the IC50 under setting [1] was less than 0.05 µM. With `NC(CC(=O)NC(c1ccc(Cl)cc1)C1CC1)c1ccc(C(=O)Nc2ccncc2)cc1` (stereo not drawn) [Compound 368, 4-(1-Amino-2-{[(4-chloro-phenyl)-cyclopropyl-methyl]-carbamoyl}-ethyl)-N-pyridin-4-yl-benzamide], the IC50 under setting [2] was 0.5 to 5 µM.

On to `NC(CNC(=O)C1CCc2cc(Cl)ccc21)c1ccc(C(=O)Nc2ccncc2)cc1` (stereo not drawn) [Compound 352, 5-Chloro-indan-1-carboxylic acid {2-amino-2-[4-(pyridin-4-ylcarbamoyl)-phenyl]-ethyl}-amide], for which the half-inhibitory concentration (IC50) under setting [1] is less than 0.05 µM. In the case of `NC(CNC(=O)Cc1ccc(Cl)c(Cl)c1)c1ccc(C(=O)Nc2ccncc2)cc1` (stereo not drawn) [Compound 329, 4-{1-Amino-2-[2-(3,4-dichloro-phenyl)-acetylamino]-ethyl}-N-pyridin-4-yl-benzamide], the half-inhibitory concentration (IC50) under setting [1] fell in the range of 0.05 to 0.5 µM.

(Values after patent US20100168102A9, “Amide Derivatives as Kinase Inhibitors” (Devgen NV, priority 2005, published 2010).)
